In the supplement of paper PMC10307832:

How the values were obtained:
Assay in all cases: relative viability (nuclei count vs DMSO), 5 days (fraction); higher = more cells survive
[1] = system: BEN
Method in brief: (§1)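 Relative viability equals treated-well nuclei counts divided by vehicle-well nuclei counts. Counts came from 4× images of lung cancer cell lines grown in 1536-well plates for 5 days after pin-tool dosing on the day after seeding. Dosing used one drug alone or a fixed anchor-drug dose plus five library-drug doses (not always all listed) in √10 steps, and values are medians of duplicate plates.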

[2] = system: ChaGo-K-1
Method in brief: as §1

[3] = system: HCC-78
Method in brief: as §1

[4] = system: LC-2-ad
Method in brief: as §1

[5] = system: LCLC-97TM1
Method in brief: as §1

[6] = system: LK-2
Method in brief: as §1

[7] = system: LU99A
Method in brief: as §1

[8] = system: LXF-289
Method in brief: as §1

[9] = system: NCI-H1355
Method in brief: as §1

[10] = system: NCI-H1651
Method in brief: as §1

[11] = system: NCI-H1666
Method in brief: as §1

[12] = system: NCI-H1944
Method in brief: as §1

[13] = system: NCI-H1975
Method in brief: as §1

[14] = system: NCI-H2087
Method in brief: as §1

[15] = system: NCI-H2342
Method in brief: as §1

[16] = system: NCI-H358
Method in brief: as §1

[17] = system: NCI-H596
Method in brief: as §1

[18] = system: NCI-H650
Method in brief: as §1

[19] = system: NCI-H661
Method in brief: as §1

[20] = system: NCI-H838
Method in brief: as §1

[21] = system: PC-3 [JPC-3]
Method in brief: as §1

[22] = system: SK-MES-1
Method in brief: as §1

SMILES: COc1nc(C)cnc1NS(=O)(=O)c1cccnc1-c1ccc(-c2nnco2)cc1 [Zibotentan] + O=C(CCCCCCC(=O)Nc1ccccc1)NO [Vorinostat] (partner 1 µM)
- relative viability ([1]; first compound 0.08 µM): 0.571
- relative viability ([1]; first compound 0.253 µM): 0.556
- relative viability ([1]; first compound 0.8 µM): 0.568
- relative viability ([1]; first compound 2.53 µM): 0.517
- relative viability ([2]; first compound 0.08 µM): 0.802
- relative viability ([2]; first compound 0.253 µM): 0.764
- relative viability ([2]; first compound 0.8 µM): 0.713
- relative viability ([2]; first compound 2.53 µM): 0.815
- relative viability ([3]; first compound 0.08 µM): 0.482
- relative viability ([3]; first compound 0.253 µM): 0.347
- relative viability ([3]; first compound 0.8 µM): 0.382
- relative viability ([3]; first compound 2.53 µM): 0.48
- relative viability ([4]; first compound 0.08 µM): 0.751
- relative viability ([4]; first compound 0.253 µM): 0.723
- relative viability ([4]; first compound 0.8 µM): 0.739
- relative viability ([4]; first compound 2.53 µM): 0.731
- relative viability ([5]; first compound 0.08 µM): 0.822
- relative viability ([5]; first compound 0.253 µM): 0.831
- relative viability ([5]; first compound 0.8 µM): 0.697
- relative viability ([5]; first compound 2.53 µM): 0.755
- relative viability ([6]; first compound 0.08 µM): 0.304
- relative viability ([6]; first compound 0.253 µM): 0.305
- relative viability ([6]; first compound 0.8 µM): 0.338
- relative viability ([6]; first compound 2.53 µM): 0.209
- relative viability ([7]; first compound 0.08 µM): 0.514
- relative viability ([7]; first compound 0.253 µM): 0.537
- relative viability ([7]; first compound 0.8 µM): 0.463
- relative viability ([7]; first compound 2.53 µM): 0.477
- relative viability ([8]; first compound 0.08 µM): 0.769
- relative viability ([8]; first compound 0.253 µM): 0.713
- relative viability ([8]; first compound 0.8 µM): 0.766
- relative viability ([8]; first compound 2.53 µM): 0.746
- relative viability ([9]; first compound 0.08 µM): 0.682
- relative viability ([9]; first compound 0.253 µM): 0.584
- relative viability ([9]; first compound 0.8 µM): 0.657
- relative viability ([9]; first compound 2.53 µM): 0.69
- relative viability ([10]; first compound 0.08 µM): 0.543
- relative viability ([10]; first compound 0.253 µM): 0.492
- relative viability ([10]; first compound 0.8 µM): 0.559
- relative viability ([10]; first compound 2.53 µM): 0.461
- relative viability ([11]; first compound 0.08 µM): 1.17
- relative viability ([11]; first compound 0.253 µM): 0.95
- relative viability ([11]; first compound 0.8 µM): 1.04
- relative viability ([11]; first compound 2.53 µM): 1.1
- relative viability ([12]; first compound 0.08 µM): 0.674
- relative viability ([12]; first compound 0.253 µM): 0.533
- relative viability ([12]; first compound 0.8 µM): 0.508
- relative viability ([12]; first compound 2.53 µM): 0.631
- relative viability ([13]; first compound 0.08 µM): 0.758
- relative viability ([13]; first compound 0.253 µM): 0.646
- relative viability ([13]; first compound 0.8 µM): 0.632
- relative viability ([13]; first compound 2.53 µM): 0.7
- relative viability ([14]; first compound 0.08 µM): 0.719
- relative viability ([14]; first compound 0.253 µM): 0.679
- relative viability ([14]; first compound 0.8 µM): 0.752
- relative viability ([14]; first compound 2.53 µM): 0.732
- relative viability ([15]; first compound 0.08 µM): 0.832
- relative viability ([15]; first compound 0.253 µM): 0.778
- relative viability ([15]; first compound 0.8 µM): 0.778
- relative viability ([15]; first compound 2.53 µM): 0.678
- relative viability ([16]; first compound 0.08 µM): 0.563
- relative viability ([16]; first compound 0.253 µM): 0.552
- relative viability ([16]; first compound 2.53 µM): 0.751
- relative viability ([17]; first compound 0.08 µM): 0.568
- relative viability ([17]; first compound 0.253 µM): 0.533
- relative viability ([17]; first compound 0.8 µM): 0.591
- relative viability ([17]; first compound 2.53 µM): 0.713
- relative viability ([18]; first compound 0.08 µM): 0.53
- relative viability ([18]; first compound 0.253 µM): 0.403
- relative viability ([18]; first compound 0.8 µM): 0.625
- relative viability ([18]; first compound 2.53 µM): 0.536
- relative viability ([19]; first compound 0.08 µM): 0.823
- relative viability ([19]; first compound 0.253 µM): 0.766
- relative viability ([19]; first compound 0.8 µM): 0.827
- relative viability ([19]; first compound 2.53 µM): 0.844
- relative viability ([20]; first compound 0.08 µM): 0.762
- relative viability ([20]; first compound 0.253 µM): 0.716
- relative viability ([20]; first compound 0.8 µM): 0.757
- relative viability ([20]; first compound 2.53 µM): 0.771
- relative viability ([21]; first compound 0.08 µM): 1.19
- relative viability ([21]; first compound 0.253 µM): 0.561
- relative viability ([21]; first compound 0.8 µM): 0.72
- relative viability ([21]; first compound 2.53 µM): 0.867
- relative viability ([22]; first compound 0.08 µM): 1.18
- relative viability ([22]; first compound 0.253 µM): 0.793
- relative viability ([22]; first compound 0.8 µM): 1.09
- relative viability ([22]; first compound 2.53 µM): 1.12
